According to US20180242591A1, “Insect Repellent” (Evolva SA, priority 2015, published 2018):
Where “and” joins values, the source holds several entries; their conditions need not be identical. Identical values can stand only once.

Test system: female Aedes aegypti mosquitoes
Assay: In vitro repellency against mosquitoes, treated collagen membranes over blood-filled wells
Assay type: in vivo
Details: 20% DEET in ethanol (positive control), 25 μL on membrane; probes over 20 minutes; five replicates
Experimental: A laboratory trial was conducted to evaluate the repellency of santalol against female Aedes aegypti mosquitoes using an in vitro method. A 20% DEET positive control and untreated and ethanol negative controls were also assessed for comparison purposes. Test substances were applied to prepared collagen membranes placed over heated, blood-filled wells and exposed to mosquitoes. The number of mosquitoes probing each well was recorded at two minute intervals up to 20 minutes. Female adult laboratory reared Aedes aegypti mosquitoes (susceptible) were obtained from Benzon Research in Carlisle, Pa. 250 mosquitoes were used per replicate (5 replicates per test). Adult mosquitoes were 3-8 days old. Santalol was diluted in ethanol to 2% and 5% concentrations. A positive control consisting of 20% DEET in ethanol was prepared using stock solutions. Negative controls consisted of no treatment, and ethanol-only treatment. […] The number of mosquitoes probing each membrane was recorded every two minutes for twenty minutes. […] Percent repellency was calculated for each replicate using the total number of probes with the following formula: [formula] […] Average percent repellency and standard error (SE) were calculated across all five replicates. […]

## CCN(CC)C(=O)c1cccc(C)c1 [20% DEET, N,N-Diethyl-meta-toluamide]
  Average percent repellency ± SE: 93.9% and 93.9 ± 2.3%
